Measured values taken from patent US11274101B2, “Heterocyclic compound” (Takeda Pharmaceutical Company Limited, priority 2017, dated 2022).

molecular target: T1, His-hMAGL (recombinant polyhistidine tagged human MAGL protein) (Homo sapiens, UniProt Q99685); assay: Measurement of MAGL inhibitory activity (arachidonic acid production from 2-arachidonylglycerol, RapidFire-mass spectrometry); type: biochemical; conditions: test compound 10 μM; MAGL inhibitory rate
T1 construct: made in house; host or cells: E. coli BL21(DE3)
T1 sequence (Q99685 1-303): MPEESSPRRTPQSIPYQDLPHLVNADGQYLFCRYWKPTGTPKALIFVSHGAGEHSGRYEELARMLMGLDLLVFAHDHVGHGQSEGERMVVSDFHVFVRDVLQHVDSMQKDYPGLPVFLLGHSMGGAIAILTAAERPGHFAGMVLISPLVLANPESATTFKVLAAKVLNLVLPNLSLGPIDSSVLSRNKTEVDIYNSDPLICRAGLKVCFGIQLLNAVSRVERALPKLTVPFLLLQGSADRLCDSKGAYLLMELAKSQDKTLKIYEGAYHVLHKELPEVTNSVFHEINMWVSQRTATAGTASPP
Method: The His-hMAGL obtained above was diluted with enzyme reaction buffer (10 mM Tris-HCl, pH 7.5, 1 mM EDTA, 0.025 (w/v) % Triton X-100, 0.01% Bovine serum albumin) to a concentration of 7.5 ng/mL. To each well of a 384 well assay plate (Greiner 781280) was added a solution (5 μL) of a test compound dissolved in dimethyl sulfoxide (DMSO), which was diluted with the above-mentioned enzyme reaction buffer, then His-hMAGL solution (5 μL) diluted to a concentration of 7.5 ng/mL was added, and the mixture was incubated at room temperature for 60 min. Thereafter, to each well was added 5 μL of 150 μM 2-arachidonylglycerol (Tocris Bioscience), and the mixture was incubated at room temperature for 10 min. Then, 10 μL of 2% formic acid (Wako Pure Chemical Industries, Ltd.) was added to stop the reaction. Furthermore, acetonitrile (50 μL) containing 3 μM arachidonic acid-d8 (Cayman Chemical Company) was added and the mixture was stirred.
The amount of arachidonic acid in the obtained enzyme reaction mixture was calculated by measuring by RapidFire-mass spectrometry and correcting by the amount of arachidonic acid-d8. High Throughput online solid phase extraction was performed using RapidFire 300™ system (Agilent Technologies, Inc.). Samples were loaded on SPE C4 cartridge (Agilent Technologies, Inc.) and desalted with 0.2 (v/v) % acetic acid (Wako Pure Chemical Industries, Ltd.) in ultrapure water/acetonitrile (70/30, v/v) at a flow rate of 1.5 mL/min, eluted at a flow rate of 0.5 mL/min with 0.2 (v/v) % acetic acid dissolved in acetonitrile/ultrapure water (90/10, v/v), and injected into the mass spectrometry part. The injection needle was washed with ultrapure water (500 millisecond) and acetonitrile (500 millisecond) to minimize carry-over. The suction time (injection loop 5 μL), load/cleansing time, elution time and re-equilibration time were adjusted to 300, 3000, 4250 and 1000 milliseconds, respectively, and the total cycle time was adjusted to about 10.0 seconds. The RapidFire300 system was controlled by RapidFire UI software version 3.6 (Agilent Technologies, Inc.).
The mass spectrometry of the resultant product was performed using API4000™ triple quadrupole mass spectrometer (AB SCIEX) equipped with an electrospray ion sauce (TurboIon Spray™) in a negative selected reaction monitoring (SRM) mode. The conditions of SRM are shown below. The parameters of the instrument were optimized as follows: capillary temperature 600° C., ion spray voltage −4.5 kV, collision gas 8, curtain gas 15 psi, ion source gas 1 60 psi, ion source gas 2 60 psi. The mass spectrometer was controlled by Analyst™ software version 1.5.1 (AB SCIEX). The peak area integration was analyzed using RapidFire integrator software version 3.6 (Agilent Technologies, Inc.).
MAGL inhibitory rate (%) was calculated according to the following calculation formula. (1-(arachidonic acid production amount of test compound addition group−arachidonic acid production amount of enzyme-free group)+(arachidonic acid production amount of test compound-free group−arachidonic acid production amount of enzyme-free group))×100

Row | Compound | inhibition at 10 µM [%]
1 | O=C1NC2(CO1)CN(C(=O)O[C@H]1C[C@@H](Oc3ccc(C(F)(F)F)cc3F)C1)C2 [Example 1, cis-3-(2-fluoro-4-(trifluoromethyl)phenoxy)cyclobutyl 6-oxo-7-oxa-2,5-diazaspiro[3.4]octane-2-carboxylate] | 100
2 | O=C1NC2(CO1)CN(C(=O)O[C@H]1C[C@@H](OCc3ccccc3)C1)C2 [Example 2, cis-3-(benzyloxy)cyclobutyl 6-oxo-7-oxa-2,5-diazaspiro[3.4]octane-2-carboxylate] | 101
3 | Cc1ccc(CO[C@H]2C[C@@H](OC(=O)N3CC4(COC(=O)N4)C3)C2)cc1Cl [Example 3, cis-3-((3-chloro-4-methylbenzyl)oxy)cyclobutyl 6-oxo-7-oxa-2,5-diazaspiro[3.4]octane-2-carboxylate] | 101
4 | Cc1cc(CO[C@H]2C[C@@H](OC(=O)N3CC4(COC(=O)N4)C3)C2)ccc1Cl [Example 4, cis-3-((4-chloro-3-methylbenzyl)oxy)cyclobutyl 6-oxo-7-oxa-2,5-diazaspiro[3.4]octane-2-carboxylate] | 100
5 | Cc1ccc(CO[C@H]2C[C@@H](OC(=O)N3CC4(COC(=O)N4)C3)C2)c(F)c1F [Example 5, cis-3-((2,3-difluoro-4-methylbenzyl)oxy)cyclobutyl 6-oxo-7-oxa-2,5-diazaspiro[3.4]octane-2-carboxylate] | 99
6 | O=C1NC2(CO1)CN(C(=O)O[C@H]1C[C@@H](OCc3ccc(F)c(F)c3F)C1)C2 [Example 6, cis-3-((2,3,4-trifluorobenzyl)oxy)cyclobutyl 6-oxo-7-oxa-2,5-diazaspiro[3.4]octane-2-carboxylate] | 101
7 | O=C1NC2(CO1)CN(C(=O)O[C@H]1C[C@@H](OCc3ccc(Cl)c(Cl)c3)C1)C2 [Example 9, cis-3-((3,4-dichlorobenzyl)oxy)cyclobutyl 6-oxo-7-oxa-2,5-diazaspiro[3.4]octane-2-carboxylate] | 99
8 | O=C1NC2(CO1)CN(C(=O)O[C@H]1C[C@@H](OCc3ccc(C(F)(F)F)cc3F)C1)C2 [Example 10, cis-3-((2-fluoro-4-(trifluoromethyl)benzyl)oxy)cyclobutyl 6-oxo-7-oxa-2,5-diazaspiro[3.4]octane-2-carboxylate] | 99
9 | O=C1NC2(CO1)CN(C(=O)O[C@H]1C[C@@H](OCc3ccc(C(F)(F)F)c(Cl)c3)C1)C2 [Example 11, cis-3-((3-chloro-4-(trifluoromethyl)benzyl)oxy)cyclobutyl 6-oxo-7-oxa-2,5-diazaspiro[3.4]octane-2-carboxylate] | 100
10 | Cc1ccc(OC[C@H]2C[C@@H](OC(=O)N3CC4(COC(=O)N4)C3)C2)c(F)c1 [Example 12, cis-3-((2-fluoro-4-methylphenoxy)methyl)cyclobutyl 6-oxo-7-oxa-2,5-diazaspiro[3.4]octane-2-carboxylate] | 101
11 | Cc1cc(F)ccc1OC[C@H]1C[C@@H](OC(=O)N2CC3(COC(=O)N3)C2)C1 [Example 13, cis-3-((4-fluoro-2-methylphenoxy)methyl)cyclobutyl 6-oxo-7-oxa-2,5-diazaspiro[3.4]octane-2-carboxylate] | 102
12 | O=C1NC2(CO1)CN(C(=O)O[C@H]1C[C@@H](COc3ccc(F)cc3Cl)C1)C2 [Example 14, cis-3-((2-chloro-4-fluorophenoxy)methyl)cyclobutyl 6-oxo-7-oxa-2,5-diazaspiro[3.4]octane-2-carboxylate] | 98
13 | O=C1NC2(CO1)CN(C(=O)O[C@H]1C[C@@H](COc3ccc(C(F)(F)F)cc3F)C1)C2 [Example 19, cis-3-((2-fluoro-4-(trifluoromethyl)phenoxy)methyl)cyclobutyl 6-oxo-7-oxa-2,5-diazaspiro[3.4]octane-2-carboxylate] | 98
14 | O=C1NC2(CO1)CN(C(=O)O[C@H]1C[C@@H](COc3ccc(C(F)(F)F)cc3Cl)C1)C2 [Example 20, cis-3-((2-chloro-4-(trifluoromethyl)phenoxy)methyl)cyclobutyl 6-oxo-7-oxa-2,5-diazaspiro[3.4]octane-2-carboxylate] | 100
15 | O=C1NC2(CO1)CN(C(=O)O[C@H]1C[C@H](COc3ccc(C(F)(F)F)cc3F)C1)C2 [Example 22, trans-3-((2-fluoro-4-(trifluoromethyl)phenoxy)methyl)cyclobutyl 6-oxo-7-oxa-2,5-diazaspiro[3.4]octane-2-carboxylate] | 103
16 | Cc1ccc(COC[C@H]2C[C@@H](OC(=O)N3CC4(COC(=O)N4)C3)C2)cc1Cl [Example 28, cis-3-(((3-chloro-4-methylbenzyl)oxy)methyl)cyclobutyl 6-oxo-7-oxa-2,5-diazaspiro[3.4]octane-2-carboxylate] | 100

Next, values leading:

Row | inhibition at 10 µM [%] | Compound
17 | 100 | O=C1NC2(CO1)CN(C(=O)O[C@H]1C[C@@H](OCc3cc(F)c(F)cc3F)C1)C2 [Example 7, cis-3-((2,4,5-trifluorobenzyl)oxy)cyclobutyl 6-oxo-7-oxa-2,5-diazaspiro[3.4]octane-2-carboxylate]
18 | 100 | O=C1NC2(CO1)CN(C(=O)O[C@H]1C[C@@H](OCc3c(F)cc(F)cc3F)C1)C2 [Example 8, cis-3-((2,4,6-trifluorobenzyl)oxy)cyclobutyl 6-oxo-7-oxa-2,5-diazaspiro[3.4]octane-2-carboxylate]
19 | 103 | O=C1NC2(CO1)CN(C(=O)O[C@H]1C[C@@H](COc3ccc(Cl)cc3F)C1)C2 [Example 15, cis-3-((4-chloro-2-fluorophenoxy)methyl)cyclobutyl 6-oxo-7-oxa-2,5-diazaspiro[3.4]octane-2-carboxylate]
20 | 101 | O=C1NC2(CO1)CN(C(=O)O[C@H]1C[C@@H](COc3cc(F)c(F)cc3F)C1)C2 [Example 17, cis-3-((2,4,5-trifluorophenoxy)methyl)cyclobutyl 6-oxo-7-oxa-2,5-diazaspiro[3.4]octane-2-carboxylate]
21 | 100 | O=C1NC2(CO1)CN(C(=O)O[C@H]1C[C@H](COc3ccc(F)c(F)c3F)C1)C2 [Example 21, trans-3-((2,3,4-trifluorophenoxy)methyl)cyclobutyl 6-oxo-7-oxa-2,5-diazaspiro[3.4]octane-2-carboxylate]
22 | 100 | O=C1NC2(CO1)CN(C(=O)OC[C@H]1C[C@@H](Oc3c(F)cc(F)cc3F)C1)C2 [Example 23, (cis-3-(2,4,6-trifluorophenoxy)cyclobutyl)methyl 6-oxo-7-oxa-2,5-diazaspiro[3.4]octane-2-carboxylate]
23 | 103 | O=C1NC2(CO1)CN(C(=O)OC[C@H]1C[C@@H](Oc3ccc(C(F)(F)F)cc3F)C1)C2 [Example 24, (cis-3-(2-fluoro-4-(trifluoromethyl)phenoxy)cyclobutyl)methyl 6-oxo-7-oxa-2,5-diazaspiro[3.4]octane-2-carboxylate]
24 | 100 | O=C1NC2(CO1)CN(C(=O)OC[C@H]1C[C@H](Oc3c(F)cc(F)cc3F)C1)C2 [Example 25, (trans-3-(2,4,6-trifluorophenoxy)cyclobutyl)methyl 6-oxo-7-oxa-2,5-diazaspiro[3.4]octane-2-carboxylate]
25 | 100 | O=C1NC2(CO1)CN(C(=O)OC[C@H]1C[C@@H](Oc3ccc(C(F)(F)F)cc3Cl)C1)C2 [Example 26, (cis-3-(2-chloro-4-(trifluoromethyl)phenoxy)cyclobutyl)methyl 6-oxo-7-oxa-2,5-diazaspiro[3.4]octane-2-carboxylate]
26 | 100 | O=C1NC2(CO1)CN(C(=O)OC[C@H]1C[C@H](Oc3ccc(C(F)(F)F)cc3Cl)C1)C2 [Example 27, (trans-3-(2-chloro-4-(trifluoromethyl)phenoxy)cyclobutyl)methyl 6-oxo-7-oxa-2,5-diazaspiro[3.4]octane-2-carboxylate]
